Measurements: US9718868B2, “Parathyroid hormone, insulin, and related peptides conjugated to bone targeting moieties and methods and making and using thereof” (THE GOVERNORS OF THE UNIVERSITY OF ALBERTA, priority 2012, dated 2017)

Test system: bone volume in ovariectomized rats
Test: Change in bone volume by microCT in ovariectomized rat model of osteoporosis
Type: in vivo
Conditions: OVX female rats, 60 μg/kg/day subcutaneous daily for 8 weeks starting 8 weeks after surgery; at 16 weeks post-ovariectomy; compared with sham, OVX-BP, OVX-PTH and weekly BP-PEG-PTH groups
From the text: Sixty female rats were divided into five groups and evaluated using the ovariectomy procedure (OVX): control (sham-operated; n=12), ovariectomy with bisphosphonate treatment (OVX-BP; n=12), OVX with teriparatide treatment (OVX-PTH; daily; n=12), OVX with daily BP-PEG-PTH treatment (n=12), and OVX with weekly BP-PEG-PTH treatment (n=12), where BP is 2-[(3-mercaptopropyl)thio]ethane-1,1-diyl}bis(phosphonic acid). Rats were ovariectomized at week 0 and the control group underwent a sham ovariectomy. Rats were left untreated for 8 weeks after surgery to allow for osteopenia to develop. After 8 weeks, rats in the OVX-PTH group received daily subcutaneous injections of PTH (60 μg/kg/day) for 8 weeks. Rats in the OVX-BP group received daily doses of bisphosphonate. Rats in the OVX-BP-PEG-PTH daily group received daily subcutaneous injections of BP-PEG-PTH (60 μg/kg/day). Rats in the OVX-BP-PEG-PTH weekly group received weekly subcutaneous injections of BP-PEG-PTH (60 μg/kg/week).
In vivo change in bone volume was measured by micro-computed tomography (microCT).

Substance: BP-PEG-PTH: hPTH (1-34) conjugated via Maleimide-PEG3500-NHS linker to thiol-bisphosphonate 2-[(3-mercaptopropyl)thio]ethane-1,1-diyl}bis(phosphonic acid)
- In vivo change in bone volume (microCT): greatest increase in bone volume
